Assay results taken from the NIST ThermoML archive (doi:10.1021/je060271a).
Where “and” joins values, the source holds several entries; their conditions need not be identical. Equal entries are not always repeated.

Details: Liquid, Vibrating tube method

CCCCC(=O)OCC(COC(=O)CCCC)(COC(=O)CCCC)COC(=O)CCCC [pentaerythritol tetrapentanoate]
Details | mass density
283.14 K, 1387.6 kPa | 1027.8 kg/m3
283.14 K, 1404.2 kPa | 1027.9 kg/m3
283.14 K, 1537.6 kPa | 1028 kg/m3
283.14 K, 1581.5 kPa | 1028 kg/m3
283.14 K, 1602.2 kPa | 1028 kg/m3
283.14 K, 7137 kPa | 1031.3 kg/m3
283.14 K, 7155.5 kPa | 1031.2 kg/m3
283.14 K, 7173.8 kPa | 1031.2 kg/m3
283.14 K, 7196.4 kPa | 1031.2 kg/m3
283.14 K, 7215.6 kPa | 1031.3 kg/m3
283.14 K, 7545.3 kPa | 1031.5 kg/m3
283.14 K, 7570.8 kPa | 1031.5 kg/m3
283.14 K, 7613.2 kPa | 1031.4 kg/m3
283.14 K, 7932.2 kPa | 1031.7 kg/m3
283.14 K, 7959.6 kPa | 1031.7 kg/m3
283.14 K, 7982.3 kPa | 1031.7 kg/m3
283.14 K, 8033 kPa | 1031.8 kg/m3
283.14 K, 8056.3 kPa | 1031.7 kg/m3
283.14 K, 8103.7 kPa | 1031.7 kg/m3
283.14 K, 8185.7 kPa | 1031.9 kg/m3
283.14 K, 9062.7 kPa | 1032.4 kg/m3
283.14 K, 9128.2 kPa | 1032.3 kg/m3
283.14 K, 9352.3 kPa | 1032.5 kg/m3
283.14 K, 9390.6 kPa | 1032.6 kg/m3
283.14 K, 9422.3 kPa | 1032.5 kg/m3
283.14 K, 9460.6 kPa | 1032.5 kg/m3
283.14 K, 9493.3 kPa | 1032.5 kg/m3
283.14 K, 9525.9 kPa | 1032.5 kg/m3
283.14 K, 9558.8 kPa | 1032.6 kg/m3
283.14 K, 10081 kPa | 1032.9 kg/m3
283.14 K, 10162 kPa | 1032.9 kg/m3
283.14 K, 11953 kPa | 1034 kg/m3
283.15 K, 105.8 kPa | 1027.1 kg/m3
283.15 K, 106 kPa | 1027.1 kg/m3 and 1027.2 kg/m3
283.15 K, 106.2 kPa | 1027.2 kg/m3 and 1027.1 kg/m3 and 1027 kg/m3
283.15 K, 106.3 kPa | 1027.2 kg/m3
283.15 K, 106.7 kPa | 1027.2 kg/m3
283.15 K, 107.6 kPa | 1027.1 kg/m3
283.15 K, 108.1 kPa | 1027.1 kg/m3
283.15 K, 109.5 kPa | 1027 kg/m3
283.15 K, 111.9 kPa | 1027.2 kg/m3
283.15 K, 117.3 kPa | 1027.1 kg/m3
283.15 K, 124.3 kPa | 1027.1 kg/m3
283.15 K, 130.2 kPa | 1027.2 kg/m3
283.15 K, 135 kPa | 1027.1 kg/m3
283.15 K, 140.8 kPa | 1027.1 kg/m3
283.15 K, 147.2 kPa | 1027.1 kg/m3
283.15 K, 154.9 kPa | 1027.1 kg/m3
283.15 K, 163.9 kPa | 1027.1 kg/m3
283.15 K, 178 kPa | 1027.2 kg/m3
283.15 K, 192.4 kPa | 1027.1 kg/m3
283.15 K, 213.6 kPa | 1027.1 kg/m3
283.15 K, 233.4 kPa | 1027.1 kg/m3
283.15 K, 247.7 kPa | 1027.2 kg/m3
283.15 K, 264 kPa | 1027.2 kg/m3
283.15 K, 279.7 kPa | 1027.1 kg/m3
283.15 K, 296.5 kPa | 1027.1 kg/m3
283.15 K, 313.2 kPa | 1027.2 kg/m3
283.15 K, 332 kPa | 1027.2 kg/m3
283.15 K, 349 kPa | 1027.3 kg/m3
283.15 K, 368.1 kPa | 1027.2 kg/m3
283.15 K, 391.4 kPa | 1027.3 kg/m3
283.15 K, 406.5 kPa | 1027.2 kg/m3
283.15 K, 423.1 kPa | 1027.4 kg/m3
283.15 K, 437.7 kPa | 1027.3 kg/m3
283.15 K, 452.6 kPa | 1027.3 kg/m3
283.15 K, 469.3 kPa | 1027.3 kg/m3
283.15 K, 482.3 kPa | 1027.4 kg/m3
283.15 K, 495.9 kPa | 1027.3 kg/m3
283.15 K, 512.7 kPa | 1027.3 kg/m3
283.15 K, 528.4 kPa | 1027.4 kg/m3
283.15 K, 544.4 kPa | 1027.4 kg/m3
283.15 K, 563 kPa | 1027.2 kg/m3
283.15 K, 579.3 kPa | 1027.3 kg/m3
283.15 K, 596.9 kPa | 1027.5 kg/m3
283.15 K, 618.9 kPa | 1027.3 kg/m3
283.15 K, 638.7 kPa | 1027.4 kg/m3
283.15 K, 659.6 kPa | 1027.5 kg/m3
283.15 K, 682 kPa | 1027.5 kg/m3
283.15 K, 710.3 kPa | 1027.4 kg/m3
283.15 K, 735.2 kPa | 1027.6 kg/m3
283.15 K, 767.3 kPa | 1027.5 kg/m3
283.15 K, 795.3 kPa | 1027.5 kg/m3
283.15 K, 819.4 kPa | 1027.5 kg/m3
283.15 K, 839.6 kPa | 1027.6 kg/m3
283.15 K, 865.5 kPa | 1027.6 kg/m3
283.15 K, 888.6 kPa | 1027.5 kg/m3
283.15 K, 912.5 kPa | 1027.6 kg/m3
283.15 K, 938.4 kPa | 1027.7 kg/m3
283.15 K, 969.9 kPa | 1027.6 kg/m3
283.15 K, 997.3 kPa | 1027.6 kg/m3
283.15 K, 1027 kPa | 1027.7 kg/m3
283.15 K, 1064.4 kPa | 1027.7 kg/m3
283.15 K, 1096.7 kPa | 1027.7 kg/m3
283.15 K, 1131.3 kPa | 1027.7 kg/m3
283.15 K, 1175 kPa | 1027.7 kg/m3
283.15 K, 1212.2 kPa | 1027.8 kg/m3
283.15 K, 1243.1 kPa | 1027.7 kg/m3
283.15 K, 1258.2 kPa | 1027.8 kg/m3
283.15 K, 1275 kPa | 1027.8 kg/m3
283.15 K, 1289.5 kPa | 1027.7 kg/m3
283.15 K, 1304.2 kPa | 1027.8 kg/m3
283.15 K, 1321.8 kPa | 1027.8 kg/m3
283.15 K, 1336.7 kPa | 1027.8 kg/m3
283.15 K, 1351.8 kPa | 1027.9 kg/m3
283.15 K, 1371.1 kPa | 1027.9 kg/m3
283.15 K, 1421.6 kPa | 1027.8 kg/m3
283.15 K, 1442.1 kPa | 1027.9 kg/m3
283.15 K, 1459.8 kPa | 1027.9 kg/m3
283.15 K, 1477.5 kPa | 1027.9 kg/m3
283.15 K, 1499.7 kPa | 1027.9 kg/m3
283.15 K, 1518.7 kPa | 1027.9 kg/m3
283.15 K, 1561.4 kPa | 1027.9 kg/m3
283.15 K, 1627.3 kPa | 1028.1 kg/m3
283.15 K, 1648.9 kPa | 1028.1 kg/m3
283.15 K, 1671.6 kPa | 1028 kg/m3
283.15 K, 1695.7 kPa | 1028 kg/m3
283.15 K, 1719.2 kPa | 1028.1 kg/m3
283.15 K, 1748.3 kPa | 1028.1 kg/m3
283.15 K, 1772.8 kPa | 1028 kg/m3
283.15 K, 1798.3 kPa | 1028 kg/m3
283.15 K, 1824.2 kPa | 1028.1 kg/m3
283.15 K, 1856.3 kPa | 1028.2 kg/m3
283.15 K, 1883 kPa | 1028.2 kg/m3
283.15 K, 1911.7 kPa | 1028.1 kg/m3
283.15 K, 1940.6 kPa | 1028.2 kg/m3
283.15 K, 1976.1 kPa | 1028.2 kg/m3
283.15 K, 2006.6 kPa | 1028.2 kg/m3
283.15 K, 2039.2 kPa | 1028.3 kg/m3
283.15 K, 2073.9 kPa | 1028.3 kg/m3
283.15 K, 2114 kPa | 1028.3 kg/m3
283.15 K, 2165.9 kPa | 1028.3 kg/m3
283.15 K, 2243 kPa | 1028.4 kg/m3
283.15 K, 2290.5 kPa | 1028.4 kg/m3
283.15 K, 2304.2 kPa | 1028.4 kg/m3
283.15 K, 2315.5 kPa | 1028.5 kg/m3
283.15 K, 2325.4 kPa | 1028.5 kg/m3
283.15 K, 2335.1 kPa | 1028.5 kg/m3
283.15 K, 2345 kPa | 1028.4 kg/m3
283.15 K, 2356.8 kPa | 1028.4 kg/m3
283.15 K, 2367 kPa | 1028.5 kg/m3
283.15 K, 2376.9 kPa | 1028.5 kg/m3
283.15 K, 2387.1 kPa | 1028.5 kg/m3
283.15 K, 2399.6 kPa | 1028.4 kg/m3
283.15 K, 2409.9 kPa | 1028.5 kg/m3
283.15 K, 2419.9 kPa | 1028.6 kg/m3
283.15 K, 2432.6 kPa | 1028.5 kg/m3
283.15 K, 2443.2 kPa | 1028.4 kg/m3
283.15 K, 2453.4 kPa | 1028.5 kg/m3
283.15 K, 2464 kPa | 1028.6 kg/m3
283.15 K, 2476.8 kPa | 1028.5 kg/m3
283.15 K, 2487.6 kPa | 1028.7 kg/m3
283.15 K, 2498.3 kPa | 1028.4 kg/m3
283.15 K, 2511.9 kPa | 1028.5 kg/m3
283.15 K, 2523 kPa | 1028.4 kg/m3
283.15 K, 2534.1 kPa | 1028.6 kg/m3
283.15 K, 2545.9 kPa | 1028.6 kg/m3
283.15 K, 2559.4 kPa | 1028.6 kg/m3
283.15 K, 2570.3 kPa | 1028.6 kg/m3
283.15 K, 2581.9 kPa | 1028.6 kg/m3
